Data on 28 compounds can be found in patent US20260062422A1 (Halda Therapeutics OpCo, Inc., priority 2022, published 2026).

Experiment [1] has as its system VCaP cells. As to the kind of experiment: Cellular growth inhibition assay for VCaP cells, CellTiter-Glo. In kind it is cell-based, human. As to conditions: Homo sapiens, VCaP, 72 h, 72 hours treatment, CellTiter-Glo 2.0. A digest of the protocol:
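GI50 values come from four-parameter curve fits of luminescence data normalized to a zero baseline. Compound, in medium with 0.5% DMSO, was added one day after plating and left for 72 h before CellTiter-Glo 2.0 addition.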

Experiment [2] relates to T-Rex 293 cell line SC3 cells lacking increased expression of androgen receptor protein. Put plainly: Cellular growth inhibition, T-Rex 293 SC3 cells without doxycycline, CellTiter-Glo. Particulars: 72 h, T-Rex 293 SC3 cells not exposed to doxycycline, CellTiter-Glo 2.0. In kind it is cell-based. A digest of the protocol:
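Cells of clone SC3 are seeded in charcoal-dextran-stripped serum medium with or without 10 ng/mL doxycycline to induce wild-type androgen receptor. After 24 h, serial compound dilutions are added at 0.5% DMSO and incubated 72 h at 37 °C. CellTiter-Glo 2.0 measures viability, giving GI50 values.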

Take `CCNC(=O)C[C@@H]1N=C(c2ccc(C#CCN3CCN(c4ncc(C(=O)N[C@H]5C(C)(C)[C@H](Oc6ccc(C#N)c(Cl)c6)C5(C)C)cn4)CC3)cc2)c2c(sc(C)c2C)-n2c(C)nnc21` [Compound I-54, N-[3-(3-chloro-4-cyano-phenoxy)-2,2,4,4-tetramethyl-cyclobutyl]-2-[4-[3-[4-[(9S)-9-[2-(ethylamino)-2-oxo-ethyl]-4,5,13-trimethyl-3-thia-1,8,11,12-tetrazatricyclo[8.3.0.02,6]trideca-2(6),4,7,10,12-pentaen-7-yl]phenyl]prop-2-ynyl]piperazin-1-yl]pyrimidine-5-carboxamide]: the GI50 is below 500 nM in experiment [1] and 500 to 1500 nM in experiment [2].
As to `Cc1sc2c(c1C)C(c1ccc(C#CCN3CCN(c4ncc(C(=O)N[C@H]5C(C)(C)[C@H](Oc6ccc(C#N)c(Cl)c6)C5(C)C)cn4)CC3)cc1)=N[C@@H](CC(=O)OC(C)(C)C)c1nnc(C)n1-2` [Compound I-55], the concentration for 50% growth inhibition (GI50) in experiment [1] and in experiment [2] was above 3000 nM throughout.
As to `CCNC(=O)C[C@@H]1N=C(c2ccc(OCCOC3CCN(c4ncc(C(=O)N[C@H]5C(C)(C)[C@H](Oc6ccc(C#N)c(Cl)c6)C5(C)C)cn4)CC3)cc2)c2c(sc(C)c2C)-n2c(C)nnc21` [Compound I-60, N-((1r,3r)-3-(3-chloro-4-cyanophenoxy)-2,2,4,4-tetramethylcyclobutyl)-2-(4-(2-(4-((S)-6-(2-(ethylamino)-2-oxoethyl)-2,3,9-trimethyl-6H-thieno[3,2-f][1,2,4]triazolo[4,3-a][1,4]diazepin-4-yl)phenoxy)ethoxy)piperidin-1-yl)pyrimidine-5-carboxamide], the GI50 in experiment [1] is 500 to 1500 nM; in experiment [2] it was below 500 nM.
Take `CCNC(=O)C[C@@H]1N=C(c2ccc(OC3CCN(c4ncc(C(=O)N[C@H]5C(C)(C)[C@H](Oc6ccc(C#N)c(Cl)c6)C5(C)C)cn4)CC3)cc2)c2c(sc(C)c2C)-n2c(C)nnc21` [Compound I-61]: the GI50 is 500 to 1500 nM in experiment [1] and 1500 to 3000 nM in experiment [2].
Turning to `CCN(C)C(=O)C[C@@H]1N=C(c2ccc(OCCOC3CCN(c4ncc(C(=O)N[C@H]5C(C)(C)[C@H](Oc6ccc(C#N)c(Cl)c6)C5(C)C)cn4)CC3)cc2)c2c(sc(C)c2C)-n2c(C)nnc21` [Compound I-66], the GI50 in experiment [1] and in experiment [2] was below 500 nM each time.
On to `CCNC(=O)C[C@@H]1N=C(c2ccc(OCC3CN(c4ncc(C(=O)N[C@H]5C(C)(C)[C@H](Oc6ccc(C#N)c(Cl)c6)C5(C)C)cn4)C3)cc2)c2c(sc(C)c2C)-n2c(C)nnc21` [Compound I-71], for which the figures for the GI50 in experiment [1] and in experiment [2] were below 500 nM and 500 to 1500 nM, respectively.
Regarding `CCNC(=O)C[C@@H]1N=C(c2ccc(OCCOC3CCN(c4ncc(C(=O)N[C@H]5C(C)(C)[C@H](Oc6ccc(C#N)c(Cl)c6)C5(C)C)cn4)CC3)c(F)c2F)c2c(sc(C)c2C)-n2c(C)nnc21` [Compound I-73], the GI50 in experiment [1] was below 500 nM; in experiment [2], 500 to 1500 nM.
Turning to `CCNC(=O)C[C@@H]1N=C(c2ccc(OCCOC3CCN(c4ncc(C(=O)N[C@H]5C(C)(C)[C@H](Oc6ccc(C#N)c(Cl)c6)C5(C)C)cn4)CC3)cc2F)c2c(sc(C)c2C)-n2c(C)nnc21` [Compound I-75], the concentration for 50% growth inhibition (GI50) is below 500 nM in experiment [1] and 500 to 1500 nM in experiment [2].
In the case of `CCNC(=O)C[C@@H]1N=C(c2ccc(OCCOC3CCN(c4ncc(C(=O)N[C@H]5C(C)(C)[C@H](Oc6ccc(C#N)c(Cl)c6)C5(C)C)cn4)CC3)c(F)c2)c2c(sc(C)c2C)-n2c(C)nnc21` [Compound I-76], the 50% growth inhibitory concentration (GI50) in experiment [1] and in experiment [2] was 500 to 1500 nM throughout.
Take `CCNC(=O)C[C@@H]1N=C(c2ccc(OCCCN(C)c3ncc(C(=O)N[C@H]4C(C)(C)[C@H](Oc5ccc(C#N)c(Cl)c5)C4(C)C)cn3)cc2)c2c(sc(C)c2C)-n2c(C)nnc21` [Compound I-81]: the GI50 in experiment [1] is below 500 nM; in experiment [2] it was 500 to 1500 nM.
Consider `CCNC(=O)C[C@@H]1N=C(c2ccc(OCCCC#Cc3ncc(C(=O)N[C@H]4C(C)(C)[C@H](Oc5ccc(C#N)c(Cl)c5)C4(C)C)cn3)cc2)c2c(sc(C)c2C)-n2c(C)nnc21` [Compound I-83], for which the GI50 in experiment [1] and in experiment [2] was 500 to 1500 nM throughout.
`CCNC(=O)C[C@@H]1N=C(c2ccc(Oc3ncc(C(=O)N[C@H]4C(C)(C)[C@H](Oc5ccc(C#N)c(Cl)c5)C4(C)C)cn3)cc2)c2c(sc(C)c2C)-n2c(C)nnc21` [Compound I-84]: the GI50 was in the range of 500 to 1500 nM in experiment [1] and 1500 to 3000 nM in experiment [2].
Turning to `CCNC(=O)C[C@@H]1N=C(c2ccc(OC3CCN(C4CCN(c5ncc(C(=O)N[C@H]6C(C)(C)[C@H](Oc7ccc(C#N)c(Cl)c7)C6(C)C)cn5)CC4)C3)cc2)c2c(sc(C)c2C)-n2c(C)nnc21` (some centres unmarked) [Compound I-85], the GI50 in experiment [1] was below 500 nM; in experiment [2], above 3000 nM.
As to `CCNC(=O)C[C@@H]1N=C(c2ccc(OCCCCc3ncc(C(=O)N[C@H]4C(C)(C)[C@H](Oc5ccc(C#N)c(Cl)c5)C4(C)C)cn3)cc2)c2c(sc(C)c2C)-n2c(C)nnc21` [Compound I-86], the GI50 in experiment [1] was 500 to 1500 nM; in experiment [2] it was 1500 to 3000 nM.
On to `CCNC(=O)C[C@@H]1N=C(c2ccc(CCCC3CCN(c4ncc(C(=O)N[C@H]5C(C)(C)[C@H](Oc6ccc(C#N)c(Cl)c6)C5(C)C)cn4)CC3)cc2)c2c(sc(C)c2C)-n2c(C)nnc21` [Compound I-95], for which the values for the GI50 in experiment [1] and in experiment [2] were 1500 to 3000 nM and below 500 nM, respectively.
For the compound `Cc1sc2c(c1C)C(c1ccc(CCCOC3CCN(c4ncc(C(=O)N[C@H]5C(C)(C)[C@H](Oc6ccc(C#N)c(Cl)c6)C5(C)C)cn4)CC3)cc1)=N[C@@H](CC(=O)NC(C)C)c1nnc(C)n1-2` [Compound I-100], the GI50 in experiment [1] is 500 to 1500 nM; in experiment [2] it was above 3000 nM.
As for `CCN(C)C(=O)C[C@@H]1N=C(c2ccc(CCCOC3CCN(c4ncc(C(=O)N[C@H]5C(C)(C)[C@H](Oc6ccc(C#N)c(Cl)c6)C5(C)C)cn4)CC3)cc2)c2c(sc(C)c2C)-n2c(C)nnc21` [Compound I-101], the concentration for 50% growth inhibition (GI50) in experiment [1] and in experiment [2] was above 3000 nM in each case.
`Cc1sc2c(c1C)C(c1ccc(CCCOC3CCN(c4ncc(C(=O)N[C@H]5C(C)(C)[C@H](Oc6ccc(C#N)c(Cl)c6)C5(C)C)cn4)CC3)cc1)=N[C@@H](CC(=O)NC1CC1)c1nnc(C)n1-2` [Compound I-102]: the GI50 in experiment [1] was below 500 nM; in experiment [2] it was above 3000 nM.
On to `CCNC(=O)C[C@@H]1N=C(c2ccc(CCCN(C)c3ncc(C(=O)N[C@H]4C(C)(C)[C@H](Oc5ccc(C#N)c(Cl)c5)C4(C)C)cn3)cc2)c2c(sc(C)c2C)-n2c(C)nnc21` [Compound I-104], for which the GI50 in experiment [1] is above 3000 nM; in experiment [2], below 500 nM.
The like results for `CCNC(=O)C[C@@H]1N=C(c2ccc(N3CCN(CC4CCN(c5ncc(C(=O)N[C@H]6C(C)(C)[C@H](Oc7ccc(C#N)c(Cl)c7)C6(C)C)cn5)CC4)CC3)cc2)c2c(sc(C)c2C)-n2c(C)nnc21` [Compound I-105, N-[3-(3-chloro-4-cyano-phenoxy)-2,2,4,4-tetramethyl-cyclobutyl]-2-[4-[[4-[4-[(9S)-9-[2-(ethylamino)-2-oxo-ethyl]-4,5,13-trimethyl-3-thia-1,8,11,12-tetrazatricyclo[8.3.0.02,6]trideca-2(6),4,7,10,12-pentaen-7-yl]phenyl]piperazin-1-yl]methyl]-1-piperidyl]pyrimidine-5-carboxamide] were, in that order, below 500 nM and below 500 nM.
`CCNC(=O)C[C@@H]1N=C(c2ccc(N(C)CC3CN(c4ncc(C(=O)N[C@H]5C(C)(C)[C@H](Oc6ccc(C#N)c(Cl)c6)C5(C)C)cn4)C3)cc2)c2c(sc(C)c2C)-n2c(C)nnc21` [Compound I-107]: the concentration for 50% growth inhibition (GI50) in experiment [1] is below 500 nM; in experiment [2] it was 500 to 1500 nM.
With `CCNC(=O)C[C@@H]1N=C(c2ccc(N(C)CCN3CCN(c4ncc(C(=O)N[C@H]5C(C)(C)[C@H](Oc6ccc(C#N)c(Cl)c6)C5(C)C)cn4)CC3)cc2)c2c(sc(C)c2C)-n2c(C)nnc21` [Compound I-108], the GI50 in experiment [1] was 500 to 1500 nM; in experiment [2], below 500 nM.
As for `CCNC(=O)C[C@@H]1N=C(c2ccc(N3CCC(N(C)C4CCN(c5ncc(C(=O)N[C@H]6C(C)(C)[C@H](Oc7ccc(C#N)c(Cl)c7)C6(C)C)cn5)CC4)CC3)cc2)c2c(sc(C)c2C)-n2c(C)nnc21` [Compound I-113], the GI50 is below 500 nM in experiment [1] and 1500 to 3000 nM in experiment [2].
For `CCNC(=O)C[C@@H]1N=C(c2ccc(N3CCC(OC4CCN(c5ncc(C(=O)N[C@H]6C(C)(C)[C@H](Oc7ccc(C#N)c(Cl)c7)C6(C)C)cn5)CC4)CC3)cc2)c2c(sc(C)c2C)-n2c(C)nnc21` [Compound I-114], in that order: below 500 nM and 500 to 1500 nM.
Turning to `CCNC(=O)C[C@@H]1N=C(c2ccc(N(C)C3CN(CC4CCN(c5ncc(C(=O)N[C@H]6C(C)(C)[C@H](Oc7ccc(C#N)c(Cl)c7)C6(C)C)cn5)CC4)C3)cc2)c2c(sc(C)c2C)-n2c(C)nnc21` [Compound I-119], the 50% growth inhibitory concentration (GI50) in experiment [1] and in experiment [2] was 500 to 1500 nM throughout.
Turning to `CCNC(=O)C[C@@H]1N=C(c2ccc(N3CC(N(C)C4CN(c5ncc(C(=O)N[C@H]6C(C)(C)[C@H](Oc7ccc(C#N)c(Cl)c7)C6(C)C)cn5)C4)C3)cc2)c2c(sc(C)c2C)-n2c(C)nnc21` [Compound I-121], the GI50 in experiment [1] was below 500 nM; in experiment [2] it was 500 to 1500 nM.
Consider `CCNC(=O)C[C@@H]1N=C(c2ccc(N3CCC(N(C)C4CN(c5ncc(C(=O)N[C@H]6C(C)(C)[C@H](Oc7ccc(C#N)c(Cl)c7)C6(C)C)cn5)C4)CC3)cc2)c2c(sc(C)c2C)-n2c(C)nnc21` [Compound I-123], for which the figures for the GI50 in experiment [1] and in experiment [2] were below 500 nM and 500 to 1500 nM, respectively.
In the case of `CCNC(=O)C[C@@H]1N=C(c2ccc(N3CCC(CN4CC(Oc5ncc(C(=O)N[C@H]6C(C)(C)[C@H](Oc7ccc(C#N)c(Cl)c7)C6(C)C)cn5)C4)CC3)cc2)c2c(sc(C)c2C)-n2c(C)nnc21` [Compound I-124], the values for the GI50 in experiment [1] and in experiment [2] were 500 to 1500 nM and 1500 to 3000 nM, respectively.
